The text below walks through data of patent publication US20120071522A1, “THERMAL STABILIZATION OF BIOCIDES IN MATRIX COMPOSITIONS PROCESSED AT ELEVATED TEMPERATURES” (priority 2004, published 2012).

The series is described as follows: Thermal stability (color change) of biocide in polyethylene and wood-plastic composite matrixes processed at elevated temperatures. The format is physicochemical.

Regarding `O=C1c2ccccc2C(=O)N1SC(Cl)(Cl)Cl` [Fungitrol® 11, N-(trichloromethylthio) phthalimide], the color change result is reported as “no color change”. For the molecule `CCCCNC(=O)OCC#CI` [IPBC], the color change result is reported as “no color change”.
